Assay results taken from patent US4137318A, “N-(phenylalkylamino-alkyl)-dihydroisoquinolinones, pharmaceutical compositions and methods employing them” (Boehringer Ingelheim GmbH, priority 1976, dated 1979).

What was measured:
[1] = LD50 in mice, i.v., observation time of 14 days; details: mouse, in vivo, iv, observation time of 14 days
Source text: Additionally, it should be noted that at all dosage levels the test compounds were tolerated very well and produced no toxic side-effects.

heart rate = assay: Bradycardiac test: effect of test compound on the heart rate of anesthetized cats; assay type: in vivo
Procedure: The effect of the test compound on the heart rate was tested at various dosage levels on 2-4 cats of both sexes per dose. The average body weight of the cats was 2.5-3.5 kg. For this purpose the animals were anesthetized with nembutal (30 mgm/kg i.p.) and chloralose-urethane (40 mgm/ml chloralose + 200 mgm/ml urethane as required). The test compound in aqueous solution was injected into the Vena saphena (i.v.) or duodenum (i.p.).
The heart rate was registered before and after administration of the test compound on a Grass-polygraph by means of a Grass-tachograph from the electrocardiogram (precordial lead).

| SMILES | LD50 at 336 h [1] | Duration of effective action (heart rate; 0.1 mgm/kg i.v.) | Duration of effective action (heart rate; 0.3 mgm/kg i.v.) | Duration of effective action (heart rate; 1.0 mgm/kg i.v.) | Duration of effective action (heart rate; 3.0 mgm/kg i.d.) | Duration of effective action (heart rate; 10.0 mgm/kg i.v.) | Duration of effective action (heart rate; 30.0 mgm/kg i.d.) | Duration of effective action (heart rate; 2.0 mgm/kg i.v.) | Duration of effective action (heart rate; 3.0 mgm/kg i.v.) |
| --- | --- | --- | --- | --- | --- | --- | --- | --- | --- |
| COc1ccc(CCN(C)CCCN2CCc3cc(OC)c(OC)cc3C2=O)cc1OC.Cl [A, 1-[6,7-dimethoxy-3,4-dihydro-2H-isoquinolin-1-one-2-yl]-3-[N-methyl-N-(2-(3,4-dimethoxy-phenyl)-ethyl)-amino] propane hydrochloride] | 53 mg/kg | 30 min | 30 min | 50 min | 60 min | 70 min | 60 min | – | – |
| COc1ccc(CCNCCCN2CCc3cc(OC)c(OC)cc3C2=O)cc1OC.Cl [B, 1-[6,7-dimethoxy-3,4-dihydro-2H-isoquinolin-1-one-2-yl]-3-[N-(2-(3,4-dimethoxy-phenyl)-ethyl)-amino] propane hydrochloride] | – | – | 22 min | 17 min | – | – | – | 43 min | – |
| COc1ccc(CCN(C)CCCN2CC(C)(C)c3cc(OC)c(OC)cc3C2=O)cc1OC.Cl [C, 1-[4,4-dimethyl-6,7-dimethoxy-3,4-dihydro-2H-isoquinolin-1-one-2-yl]-3-[N-methyl-N-(2-(3,4-dimethoxy-phenyl)-ethyl)-amino]-propane hydrochloride] | – | – | 8 min | 11 min | – | – | – | – | 18 min |
| COc1ccc(CCNCCCN2CC(C)(C)c3cc(OC)c(OC)cc3C2=O)cc1OC.Cl [D, 1-[4,4-dimethyl-6,7-dimethoxy-3,4-dihydro-2H-isoquinolin-1-one-2-yl]-3-[N-(2-(3,4-dimethoxy-phenyl)-ethyl)-amino]-propane hydrochloride] | – | – | – | 6 min | – | – | – | – | 16 min |
| COc1ccc(CCN(C)CCCN2CCCc3cc(OC)c(OC)cc3C2=O)cc1OC.Cl [E, 1-[7,8-dimethoxy-1,2,3,4-tetrahydro-5H-2-benzazepin-1-one-2-yl]-3-[N-methyl-N-(2-(3,4-dimethoxy-phenyl)-ethyl)-amino]-propane hydrochloride] | – | – | – | 30 min | – | – | – | 20 min | – |
